Source: the CombiSolv-Exp solvation set (Vermeire and Green 2021)

Assay: solvent given as SMILES

COc1cc(Cc2cnc(N)nc2N)cc(OC)c1OC
Conditions | solvation free energy, 298 K [kcal/mol]
in C1CCOC1 | -19.9
in CC(C)O | -19.2
in CCC(C)O | -19.4
in CCCCO | -19.5
in CCCO | -19.8
in CCO | -19.8
in CO | -20.6

CC12C=CC(C1)C(C)(C)C2 (configuration not stated)
Conditions | solvation free energy, 298 K [kcal/mol]
in O | 0.64

O=C=O
Conditions | solvation free energy, 298 K [kcal/mol]
in Brc1ccccc1 | -0.35
in C1CCC2CCCCC2C1 | -0.22
in C1CCCCC1 | -0.32
in C1CCOC1 | -1.12
in C1COCCO1 | -1.16
in C=CCCCC | -0.56
in C=CCCCCCC | -0.45
in C=CCCCCCCCC | -0.35
in CC1COC(=O)O1 | -0.75
in CC(C)(C)O | -0.41
in CC(C)=O | -1.1
in CC(C)CO | -0.37
in CC(C)O | -0.42
in CCC(C)=O | -0.98
in CCC(C)O | -0.33
in CCCCCC | -0.48
in CCCCCCC | -0.41
in CCCCCCCC | -0.35
in CCCCCCCCCC | -0.27
in CCCCCCCCCCCCCCCC | -0.12
in CCCCCCCCCCO | -0.13
in CCCCCCCCO | -0.22
in CCCCO | -0.4
in CCCCOCCO | -0.26
in CCCCOCCOCCO | -0.23
in CCCCOCCOCCOCCO | -0.48
in CCCO | -0.48
in CCO | -0.57
in CCOCCOCCO | -0.51
in CCOCCOCCOCC | -0.69
in CCc1ccccc1 | -0.21
in CN1CCCC1=O | -0.82
in CN(C)C=O | -0.95
in CN(C)P(=O)(N(C)C)N(C)C | -0.9
in CO | -0.85
in COC(=O)CC#N | -0.67
in COC(C)=O | -1.13
in COCCO | -0.65
in COCCOC | -0.86
in COCCOCCO | -0.7
in COCCOCCOC | -0.84
in COCCOCCOCCO | -0.5
in COCCOCCOCCOC | -0.7
in COCCOCCOCCOCCOC | -0.77
in CS(C)=O | -0.69
in Cc1ccc(C)cc1 | -0.45
in Cc1cccc(C)c1 | -0.45
in Cc1ccccc1 | -0.48
in Cc1ccccc1C | -0.43
in ClC(Cl)(Cl)Cl | -0.61
in ClC(Cl)Cl | -0.61
in ClCCCl | -0.78
in ClCCl | -0.68
in Clc1ccccc1 | -0.5
in Nc1ccccc1 | -0.44
in O | 0.11
in O=C1CCCC1 | -0.89
in O=C1CCCCC1 | -0.79
in O=CN1CCOCC1 | -0.71
in OCCCOCCCO | -0.25
in OCCO | -0.17
in OCCOCCO | -0.28
in OCc1ccccc1 | -0.36
in c1ccccc1 | -0.58

CC1=CCC2C3C1C2(C)CCCC3(C)C (configuration not stated)
Conditions | solvation free energy, 298 K [kcal/mol]
in O | 0.29

CC12CCC(=O)C=C1CCC1C2C(O)CC2(C)C1CCC2(O)C(=O)C(O)C(CCCCC(N)=O)C(N)=O (configuration not stated)
Conditions | solvation free energy, 298 K [kcal/mol]
in C=CCCCCCCC=C | -29.8
in C=CCCCCCCCCCCCCCC | -27.4
in O | -33.7

N#Cc1ccncc1
Conditions | solvation free energy, 298 K [kcal/mol]
in O | -6.02

CCCCCCCCCC(C)C
Conditions | solvation free energy, 298 K [kcal/mol]
in O | 4.04

CCCC(C)C
Conditions | solvation free energy, 298 K [kcal/mol]
in Brc1ccccc1 | -3.41
in C1CCCCC1 | -3.86
in C1CCOC1 | -3.7
in C1COCCO1 | -3.03
in C=CCCCC | -3.84
in C=CCCCCCC | -3.73
in C=CCCCCCCCC | -3.64
in C=CCCCCCCCCCCCCCC | -3.33
in CC1COC(=O)O1 | -1.98
in CC#N | -2.5
in CC(=O)N(C)C | -2.65
in CC(=O)O | -2.72
in CC(=O)c1ccccc1 | -2.84
in CC(C)=O | -3.08
in CC(C)CC(C)(C)C | -3.72
in CC(C)CCCC(C)CCCC(C)CCCCC(C)CCCC(C)CCCC(C)C | -3.28
in CC(C)CCO | -3.23
in CC(C)O | -3.02
in CC(C)OC(C)C | -3.78
in CCBr | -3.88
in CCC#N | -2.84
in CCC(C)=O | -3.27
in CCCC#N | -3.05
in CCCC(=O)OCC | -3.46
in CCCC(C)=O | -3.34
in CCCCC | -3.93
in CCCCCC | -3.87
in CCCCCC(C)=O | -3.35
in CCCCCCC | -3.78
in CCCCCCCC | -3.71
in CCCCCCCCC | -3.67
in CCCCCCCCCC | -3.63
in CCCCCCCCCCCC | -3.52
in CCCCCCCCCCCCCCCC | -3.45
in CCCCCCCCCOC(=O)c1ccccc1C(=O)OCCCCCCCCC | -3.02
in CCCCCCCCO | -3.18
in CCCCCCOC(C)=O | -3.42
in CCCCCO | -3.3
in CCCCO | -3.12
in CCCCOC(C)=O | -3.4
in CCCCOCCCC | -3.7
in CCCO | -3.01
in CCN(CC)CC | -3.81
in CCO | -2.97
in CCOC(C)=O | -3.29
in CCOCC | -3.78
in CCOCCOCCOCC | -3.21
in CCOc1ccccc1 | -3.26
in CN1CCCC1=O | -2.55
in CN1CCCCC1=O | -2.58
in CN(C)C=O | -2.52
in CN(C)P(=O)(N(C)C)N(C)C | -2.88
in CNC=O | -2.24
in CO | -2.68
in COC(C)(C)C | -3.77
in COC(C)=O | -3.14
in COCCO | -2.53
in COc1ccccc1 | -3.2
in CS(C)=O | -1.78
in Cc1ccc(C)cc1 | -3.64
in Cc1ccccc1 | -3.65
in Cc1ccccn1 | -3.28
in ClC(Cl)(Cl)Cl | -3.85
in ClC(Cl)Cl | -3.72
in ClCCCl | -3.24
in ClCCl | -3.54
in Clc1ccccc1 | -3.62
in FC(F)(F)C(F)(F)C(F)(F)C(F)(F)C(F)(F)C(F)(F)C(F)(F)C(F)(F)F | -2.43
in FC(F)(F)C(F)(F)C(F)(F)C(F)(F)C(F)(F)C(F)(F)F | -2.53
in Fc1ccccc1 | -3.63
in ICI | -1.94
in N#Cc1ccccc1 | -2.91
in Nc1ccccc1 | -2.28
in O | 2.51
in O=C1CCCCC1 | -3.16
in O=C1CCCO1 | -2.1
in OCc1ccccc1 | -2.47
in S=C=S | -3.82
in c1ccccc1 | -3.61
in c1ccncc1 | -3.06

Clc1cc(-c2cc(Cl)c(Cl)c(Cl)c2Cl)cc(Cl)c1Cl
Conditions | solvation free energy, 298 K [kcal/mol]
in O | -3.17

C=C(C)C(=C)C
Conditions | solvation free energy, 298 K [kcal/mol]
in CN1CCCC1=O | -3.55
in CN(C)C=O | -3.53
in O | 0.4
in OCCO | -1.73
in OCCOCCO | -2.47
in OCCOCCOCCO | -2.49

CCCC(=O)OCC
Conditions | solvation free energy, 298 K [kcal/mol]
in CCCCCCCC | -4.69
in CCCCCCCCCCCCCCCC | -4.54
in CCCCCCCCO | -4.86
in CN1CCCC1=O | -4.9
in O | -2.52
in O=CN1CCOCC1 | -4.61
in [2H]O[2H] | -2.59

O=Cc1ccncc1
Conditions | solvation free energy, 298 K [kcal/mol]
in O | -7

CC(C(=O)O)c1ccc(-c2ccccc2)c(F)c1 (configuration not stated)
Conditions | solvation free energy, 298 K [kcal/mol]
in C1COCCO1 | -16.2
in CC(C)=O | -16.1
in CCCCCCCO | -15.6
in CCCCCCO | -15.6
in CCCCCO | -15.7
in CCCCO | -15.7
in CCCO | -15.8
in CCO | -15.9
in CCOC(C)=O | -15.9
in CO | -15.9
in O | -8.42

COc1ccc(C(=O)N(O)c2cccc(Cl)c2)cc1
Conditions | solvation free energy, 298 K [kcal/mol]
in O | -12.8

CCCCCCCO
Conditions | solvation free energy, 298 K [kcal/mol]
in CC(C)CC(C)(C)C | -5.82
in CCCCCC | -5.59
in CCCCCCC | -5.59
in CCCCCCCCCCCCCCCC | -5.43
in CCCCCCO | -8.08
in CO | -7.6
in NC=O | -6.38
in O | -4.24

CCOC(=O)c1ccccc1
Conditions | solvation free energy, 298 K [kcal/mol]
in O | -3.74

C=CC=O
Conditions | solvation free energy, 298 K [kcal/mol]
in CCCCCO | -3.22
in CCCCO | -3.21
in O | -3.16

Nc1ccc(-c2ccc(N)cc2)cc1
Conditions | solvation free energy, 298 K [kcal/mol]
in Cc1ccccc1C | -15.7

CCCCCCCI
Conditions | solvation free energy, 298 K [kcal/mol]
in O | 0.27

CN1C(=O)C(O)N=C(c2ccccc2)c2cc(Cl)ccc21 (configuration not stated)
Conditions | solvation free energy, 298 K [kcal/mol]
in CC(C)O | -18.1
in CCCCCCO | -18.6
in CCCCCO | -18.5
in CCCCO | -18.5
in CCCO | -18.5
in CCO | -18.6
in CN(C)C=O | -20
in CO | -19.1
in O | -15.2
in O=C1CCCCC1 | -19.6

CNCCc1ccc(O)cc1
Conditions | solvation free energy, 298 K [kcal/mol]
in C=CCCCCCCC=C | -9.48
in O | -11.9

C=CCCCCC
Conditions | solvation free energy, 298 K [kcal/mol]
in C1CCC2CCCCC2C1 | -4.38
in C1CCC(C2CCCCC2)CC1 | -4.33
in C=CCCCCCCCCCCCCCC | -4.16
in CC#N | -3.44
in CCC#N | -4.05
in CCCC#N | -3.78
in CCCCC(CC)COC(=O)CCCCC(=O)OCC(CC)CCCC | -4.03
in CCCCC(CC)COC(=O)c1ccccc1C(=O)OCC(CC)CCCC | -3.78
in CCCCCCC | -4.5
in CCCCCCCCC=CCCCCCCCC(=O)OCC(COC(=O)CCCCCCCC=CCCCCCCCC)OC(=O)CCCCCCCC=CCCCCCCCC | -4.07
in CCCCCO | -3.93
in CCCCOC(=O)c1ccccc1C(=O)OCCCC | -3.98
in CCCCOC(C)=O | -4.28
in CCN1CCCC1=O | -3.73
in CCOC(=O)c1ccccc1C(=O)OCC | -3.53
in CCOC(C)=O | -4.07
in CN1CCCC1=O | -3.46
in CN(C)C=O | -3.36
in CS(C)=O | -2.51
in N#CCCCCC#N | -2.8
in N#Cc1ccccc1 | -3.92
in NC=O | -1.24
in NCCO | -1.63
in Nc1ccccc1 | -3.24
in O | 1.66
in O=C1CCCO1 | -3
in O=CN1CCOCC1 | -2.89
in O=Cc1ccco1 | -3.2
in OCCO | -1.45
in OCCOCCO | -2.1
in OCCOCCOCCO | -2.27
in OCCOCCOCCOCCO | -2.4
in OCc1ccco1 | -3.1
in c1ccc2c(c1)CCCC2 | -4.37
in c1ccc(C2CCCCC2)cc1 | -4.31

Clc1ccc2c(c1)Oc1c(Cl)c(Cl)c(Cl)c(Cl)c1O2
Conditions | solvation free energy, 298 K [kcal/mol]
in O | -4.15

CC1=CCC2CC1C2(C)C (configuration not stated)
Conditions | solvation free energy, 298 K [kcal/mol]
in O | 0.97

CN1C(C(=O)Nc2ccccn2)=C(O)c2ccccc2S1(=O)=O
Conditions | solvation free energy, 298 K [kcal/mol]
in CN(C)C=O | -21
in NC=O | -19.3
in O | -15.8

C=CC1(C)CCC(=C(C)C)CC1C(=C)C (configuration not stated)
Conditions | solvation free energy, 298 K [kcal/mol]
in O | -0.35
